Entries after “also recorded” stand apart in the source; their conditions may differ.
Experiments:
[1] = biological target: T1, purified human MD-2 receptor (Homo sapiens, UniProt Q9Y6Y9); test: Biotinylated LPS displacement from MD-2 hydrophobic pocket (ELISA); type: binding
T1 sequence (Q9Y6Y9 19-160): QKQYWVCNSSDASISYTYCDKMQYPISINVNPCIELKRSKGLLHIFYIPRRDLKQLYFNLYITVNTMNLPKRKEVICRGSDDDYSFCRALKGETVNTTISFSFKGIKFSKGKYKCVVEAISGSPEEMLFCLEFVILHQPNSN
Experimental: The ability to displace LPS from MD-2 hydrophobic pocket was assessed by using an ELISA assay. Molecules FP11 and FP111 were added at increasing concentrations to MD-2 which had previously been incubated with biotinylated LPS.
The ability of the compounds to displace LPS from MD-2 hydrophobic pocket was determined by ELISA.
A microtiter plate was coated overnight at 4° C. with 100 μL/well of 5 μg/mL chicken polyclonal anti-MD-2 antibodies, diluted in 50 mM Na2CO3 buffer, pH 9.6, and blocked with 1% BSA in PBS. After washing, 1 μM MD-2 with biotin-labeled LPS was added and incubated for 2 h. After washing, the compounds were added at different concentrations and incubated for 1.5 h.
After washing, 0.5 μg/mL HRP-conjugated streptavidin (Sigma) in PBS was added, followed by detection at 420 nm after the addition of 100 μL of ABTS (Sigma). Chicken anti-MD-2 polyclonal antibodies were prepared against recombinant MD-2 by GenTel (Madison, Wis., USA),

[2] = system: HEK-Blue™ hTLR4 cells; test: MTT cell viability assay; type: cell-based; details: 25 and 50 μM, 16-18 hours
Experimental: HEK-Blue™ hTLR4 cells were treated with the higher concentrations used in the preceding assays and incubated for 16-18 hours. Results were normalized to PBS addition and are expressed as mean of percentage ±ES. of at least three independent experiments.
Finally, compound FP11 cytotoxicity was assessed by MTT (3-(4,5-dimethylthiazol-2-yl)-2,5-diphenyltetrazolium bromide) viability assay. HEK-Blue™ hTLR4 cells were treated with the highest compound concentrations used in the preceding assay (25 and 50 μM).
HEK-Blue™ hTLR4 cells were grown in DMEM supplemented with 10% FBS, 2 mM glutamine and antibiotics.
Cells were seeded in 100 μL of DMEM without Phenol Red at a density of 4×10^4 cells per well and incubated overnight (37° C., 5% CO2 , 95% humidity).
Cells were treated with the higher dose of compound used in the previous experiments and incubated overnight. MTT solution (5 mg/mL in PBS) was added to each well, and after 3 h incubation, 0.1 N HCl in 2-propanol solution was used to dissolve formazan crystals.
Formazan concentration was determined by measuring the absorbance at 570 nm.
The results were normalized with untreated control (PBS) and expressed as the mean of percentage ±SEM of three independent experiments.

[3] = biological target: T2, hTLR4 (Homo sapiens, UniProt O00206+Q9Y6Y9); test: HEK-Blue hTLR4 SEAP reporter assay (NF-κB/AP-1 activation); type: cell-based; details: HEK-Blue hTLR4 cells, 16-18 hours
T2 construct: host or cells: HEK-Blue hTLR4 (HEK cells)
T2 sequence (O00206 24-839): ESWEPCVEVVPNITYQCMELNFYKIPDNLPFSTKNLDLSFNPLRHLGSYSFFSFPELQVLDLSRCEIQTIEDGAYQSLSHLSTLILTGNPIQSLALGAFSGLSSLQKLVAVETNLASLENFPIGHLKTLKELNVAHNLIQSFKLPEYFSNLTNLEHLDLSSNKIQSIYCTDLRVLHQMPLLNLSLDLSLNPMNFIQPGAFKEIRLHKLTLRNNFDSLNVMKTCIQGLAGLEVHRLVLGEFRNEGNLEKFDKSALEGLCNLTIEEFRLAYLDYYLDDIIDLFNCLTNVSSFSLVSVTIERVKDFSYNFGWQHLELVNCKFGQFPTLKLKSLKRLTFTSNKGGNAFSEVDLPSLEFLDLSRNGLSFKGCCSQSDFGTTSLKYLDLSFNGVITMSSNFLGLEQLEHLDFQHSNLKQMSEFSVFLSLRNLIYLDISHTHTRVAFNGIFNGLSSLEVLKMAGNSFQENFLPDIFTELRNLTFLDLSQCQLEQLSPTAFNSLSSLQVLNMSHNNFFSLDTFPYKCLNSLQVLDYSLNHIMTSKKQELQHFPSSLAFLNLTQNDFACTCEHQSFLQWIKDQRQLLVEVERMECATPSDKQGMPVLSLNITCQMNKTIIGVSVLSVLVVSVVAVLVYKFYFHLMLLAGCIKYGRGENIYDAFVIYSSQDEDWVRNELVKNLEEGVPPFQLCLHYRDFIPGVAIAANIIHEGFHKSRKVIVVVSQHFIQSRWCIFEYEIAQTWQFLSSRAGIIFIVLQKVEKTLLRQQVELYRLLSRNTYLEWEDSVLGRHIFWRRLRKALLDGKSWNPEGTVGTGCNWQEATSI
T2 sequence (Q9Y6Y9 17-160 limits assumed): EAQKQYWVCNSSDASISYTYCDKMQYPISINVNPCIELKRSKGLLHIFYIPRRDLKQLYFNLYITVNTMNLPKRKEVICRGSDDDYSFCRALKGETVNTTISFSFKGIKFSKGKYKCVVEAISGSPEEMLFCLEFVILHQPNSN
Experimental: (§1) HEK-Blue™ hTLR4 (FIG. 1A) and HEK-Blue™ Null2 (FIG. 1B) cells were treated with the indicated concentrations of compounds FP11, FP111, and with LPS (100 ng/mL) and incubated for 16-18 hours. Results were normalized to stimulation with LPS alone, and are expressed as mean of percentage ±ES. of at least three independent experiments.
HEK-Blue™ hTLR4 cells were treated with increasing concentrations of compound FP11 and of LPS and incubated for 16-18 hours. Results were normalized to maximum activation of the reporter produced by LPS (FIG. 2A) and to maximum activation of the reporter produced by the compound itself (FIG. 2B). Data were fitted to a sigmoidal four-parameter logistic equation in order to determine IC50 values, and expressed as mean of percentage ±ES of at least three independent experiments.
HEK-Blue™ hTLR4 cells are HEK cells transfected so as to stably express human receptors hTLR4, hMD-2, and hCD14 for endotoxin recognition. In addition, said cells have a reporter gene encoding for a secreted alkaline phosphatase (SEAP) μlaced under the control of specific transcription factors (NF-κB and AP-1) activated by the TLR4 signaling pathway. Therefore, the presence of LPS or of an agonist of TLR4 causes receptor dimerization, activation of the signaling pathway and of transcription factors NF-κB and AP-1, and finally SEAP production and secretion into the culture medium. SEAP levels can be subsequently quantitated by incubating the medium with compound p-nitrophenylphosphate (pNPP) and monitoring with a spectrophotometer the formation of p-nitrophenol chromogenic product at 405 nm.
HEK-Blue™ hTLR4 cells (InvivoGen) were cultured according to manufacturer's instruction. […]
Cells were detached using a cell scraper, counted and seeded in a 96-well multiwell plate at a density of 4×10^4 cells per well. […]
The wells' optical density was determined using a microplate reader set at 405 nm.
The results were normalized with positive control (LPS alone) and expressed as a mean of percentage ±SEM of at least three independent experiments.

[4] = system: HEK-Blue™ Null2 cells; test: HEK-Blue Null2 counter-assay (SEAP reporter, no TLR4/MD-2/CD14); type: cell-based; details: 16-18 hours
Experimental: as §1
In order to be certain that the agonist effect of compound FP11 be due to the interaction with the TLR4 receptor, the compounds were tested on the HEK-Blue™ Null2 cell line. Said line expresses the same reporter gene of HEK-Blue™ hTLR4 cells (SEAP), but has none of the receptors involved in endotoxin recognition (TLR4, MD-2, CD14).

[5] = biological target: T1, purified human MD-2 receptor; test: MD-2-bound fluorescent molecule (bis-ANS) displacement assay; type: binding; details: MD-2 200 nM, bis-ANS 200 nM
Experimental: therefore, TLR4 modulators that interact with MD-2 compete with compound bis-ANS, and are able to displace it from MD-2.
Fluorescence was measured on PerkinElmer fluorimeter LS 55 (PerkinElmer, UK) as previously described^[5].
All measurements were done at 20° C. in a 5×5 mm quartz glass cuvette (Hellma Suprasil, Müllheim, Germany). MD-2 protein (200 nM) and 1,1′-Bis(anilino)-4,4′-bis (naphtalene)-8,8′ disulfonate (bis-ANS, 200 nM) were mixed and incubated until reaching stable relative fluorescence units (RFUs) emitted at 420-550 nm under excitation at 385 nm.
Compounds, at different concentrations, were then added, followed by relative fluorescence unit (RFU) measurement at 420-550 nm.

With `CCCCCCCCCCCCCC(=O)NC1C(OC(=O)CCCCCCCCCCCCC)[C@H](OC(=O)CCCCCCCCCCCCC)C(CO)O[C@H]1OP(=O)(O)O` (stereo partly drawn) [FP11, 1-O-Phosphoryl-2-deoxy-4-O-tetradecanoyl 3-O-tetradecanoyl-2-tetradecanoylamino-α-D-glucopiranoside] the “displacement of biotinylated LPS from MD-2” value ([1]; 160 μM) was 55%, the “ability to displace biotinylated LPS from MD-2 hydrophobic pocket” value ([1]; increasing concentrations, highest 160 μM) was “displaces biotinylated LPS from MD-2 hydrophobic pocket in a dose-dependent manner” and the “cytotoxicity (MTT viability)” value [2] was “not toxic at the concentrations assayed”. The “concentrations at which activation of NF-κB and AP-1 is induced” value ([3]; SEAP reporter) was greater than 5 µM, the EC50 ([3]; dose-response curve) was 12.3 µM and the “activation of transcription factors NF-κB and AP-1 in cells without TLR4, MD-2, CD14” value [4] was “unable to activate transcription factors NF-κB and AP-1”. The “decrease of bis-ANS fluorescence / inhibition of bis-ANS binding to MD-2” value [5] was “concentration-dependent decrease of compound bis-ANS fluorescence; also recorded: inhibits the binding of bis-ANS to MD-2 in a dose-dependent manner”.

Reference: patent US20230037862A1, “SYNTHETIC AGONISTS OF TLR4 RECEPTOR” (UNIVERSITÀ DEGLO STUDI DI MILANO - BICOCCA, priority 2017, published 2023)
